What was measured:
Experiment in all cases: 33PanQinase panel
Format in all cases: biochemical
[1] = target: T1, PKMYT1 (Homo sapiens, UniProt Q99640); conditions: PKMYT1, 1 µM; read-out: Residual Activity (%)
T1 construct: purchased ProQinase
Method: (§1) Figure 5 Dendrogram representation of the selectivity profile of 29d at a concentration of 1 μM in a panel of 320 wild-type kinases (ProQinase, Freiburg, Germany). The residual kinase activity was determined compared to DMSO control. Images were generated using TREEspot Software Tool, DISCOVERX CORPORATION 2010. […]
(§2) Table S2. Selectivity profile of compound 29d. The inhibitor has been screened at a concentration of 1 µM over a panel of 320 wild-type protein kinases by ProQinase GmbH (Freiburg, Germany) using an activity-based radiometric 33PanQinase® assay. Results are presented as percentage of residual kinase activity relative to […]
(§3) control. The final DMSO concentration was 1 % in each reaction-mix. Classification of protein kinase families refers to Manning et al. (Manning, G.; Whyte, D. B.; Martinez, R.; Hunter, T.; Sudarsanam, S. The Protein Kinase Complement of the Human Genome. Science 2002, 298, 1912–1934): AGC = containing PKA, PKG, PKC families; […] = containing Cdk, MAPK, GSK3, CLK families; STE = homologs of yeast sterile 7, sterile 11, sterile 20 kinases; TK = tyrosine kinase; TKL = tyrosine kinase-like.
(§4) Kinase name Kinase family Residual Activity (%)

[2] = target: T2, CDK6/CycD3 (Homo sapiens, UniProt Q00534); conditions: CDK6/CycD3, 1 µM; read-out: Residual Activity (%)
T2 construct: purchased ProQinase
Method: as §1, §2, §3, §4

[3] = target: T3, SGK2 (Homo sapiens, UniProt Q9HBY8); conditions: SGK2, 1 µM; read-out: Residual Activity (%)
T3 construct: purchased ProQinase
Method: as §1, §2, §3, §4

[4] = target: T4, EEF2K (Homo sapiens, UniProt O00418); conditions: read-out: Residual Activity (%)
T4 construct: purchased ProQinase
Method: as §1, §2, §3, §4

[5] = target: T5, EPHB4 (Homo sapiens, UniProt P54760); conditions: EPHB4, 1 µM; read-out: Residual Activity (%)
T5 construct: purchased ProQinase
Method: as §1, §2, §3, §4

[6] = target: T6, SNARK (Homo sapiens, UniProt Q9H093); conditions: read-out: Residual Activity (%)
T6 construct: purchased ProQinase
Method: as §1, §2, §3, §4

[7] = target: T7, KIT (Homo sapiens, UniProt P10721); conditions: read-out: Residual Activity (%)
T7 construct: purchased ProQinase
Method: as §1, §2, §3, §4

[8] = target: T8, HIPK3 (Homo sapiens, UniProt Q9H422); conditions: HIPK3, 1 µM; read-out: Residual Activity (%)
T8 construct: purchased ProQinase
T8 sequence (Q9H422 whole entry): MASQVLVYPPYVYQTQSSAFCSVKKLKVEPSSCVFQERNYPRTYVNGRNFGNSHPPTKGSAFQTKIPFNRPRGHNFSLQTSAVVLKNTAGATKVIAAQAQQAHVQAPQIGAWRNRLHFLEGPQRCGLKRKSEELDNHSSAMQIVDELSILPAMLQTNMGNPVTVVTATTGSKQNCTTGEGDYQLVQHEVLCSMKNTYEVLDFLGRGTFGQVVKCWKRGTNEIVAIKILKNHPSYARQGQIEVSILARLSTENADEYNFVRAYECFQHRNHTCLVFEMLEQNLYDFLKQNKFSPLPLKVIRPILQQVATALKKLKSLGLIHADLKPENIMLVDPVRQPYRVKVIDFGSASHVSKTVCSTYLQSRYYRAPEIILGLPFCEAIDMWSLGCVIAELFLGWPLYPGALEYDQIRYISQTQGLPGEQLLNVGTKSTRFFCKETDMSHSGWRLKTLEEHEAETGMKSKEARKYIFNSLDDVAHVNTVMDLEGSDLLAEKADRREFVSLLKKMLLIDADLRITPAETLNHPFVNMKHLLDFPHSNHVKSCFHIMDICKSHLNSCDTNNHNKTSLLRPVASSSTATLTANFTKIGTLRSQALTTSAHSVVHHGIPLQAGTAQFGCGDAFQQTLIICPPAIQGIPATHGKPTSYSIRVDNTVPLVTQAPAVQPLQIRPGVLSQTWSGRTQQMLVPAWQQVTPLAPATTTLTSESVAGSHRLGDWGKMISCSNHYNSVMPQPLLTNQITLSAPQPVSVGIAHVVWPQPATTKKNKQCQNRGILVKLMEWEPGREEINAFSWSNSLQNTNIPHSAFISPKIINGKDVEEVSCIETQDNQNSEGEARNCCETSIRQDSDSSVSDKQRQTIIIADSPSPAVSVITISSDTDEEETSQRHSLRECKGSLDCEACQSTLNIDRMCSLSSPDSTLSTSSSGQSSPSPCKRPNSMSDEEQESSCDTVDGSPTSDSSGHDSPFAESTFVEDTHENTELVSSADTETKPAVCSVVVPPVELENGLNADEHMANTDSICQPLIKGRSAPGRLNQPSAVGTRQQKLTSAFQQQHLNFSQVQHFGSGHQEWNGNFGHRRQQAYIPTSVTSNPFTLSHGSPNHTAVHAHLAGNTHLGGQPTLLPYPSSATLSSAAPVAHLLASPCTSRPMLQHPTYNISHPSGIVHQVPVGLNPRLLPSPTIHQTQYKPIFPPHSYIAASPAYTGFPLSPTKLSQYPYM
Method: as §1, §2, §3, §4

[9] = target: T9, JNK1 (Homo sapiens, UniProt P45983); conditions: JNK1, 1 µM; read-out: Residual Activity (%)
T9 construct: purchased ProQinase
Method: as §1, §2, §3, §4

[10] = target: T10, RPS6KA1 (Homo sapiens, UniProt Q15418); conditions: RPS6KA1, 1 µM; read-out: Residual Activity (%)
T10 construct: purchased ProQinase
Method: as §1, §2, §3, §4

[11] = target: T11, DYRK1A (Homo sapiens, UniProt Q13627); conditions: read-out: Residual Activity (%)
T11 construct: purchased ProQinase
Method: as §1, §2, §3, §4

[12] = target: T12, PKC-eta (Homo sapiens, UniProt P24723); conditions: read-out: Residual Activity (%)
T12 construct: purchased ProQinase
Method: as §1, §2, §3, §4

[13] = target: T13, AMPK-alpha1 aa1-550 (Homo sapiens, UniProt Q13131); conditions: AMPK-alpha1 aa1-550, 1 µM; read-out: Residual Activity (%)
T13 construct: purchased ProQinase
T13 sequence (Q13131 10-559 limits assumed): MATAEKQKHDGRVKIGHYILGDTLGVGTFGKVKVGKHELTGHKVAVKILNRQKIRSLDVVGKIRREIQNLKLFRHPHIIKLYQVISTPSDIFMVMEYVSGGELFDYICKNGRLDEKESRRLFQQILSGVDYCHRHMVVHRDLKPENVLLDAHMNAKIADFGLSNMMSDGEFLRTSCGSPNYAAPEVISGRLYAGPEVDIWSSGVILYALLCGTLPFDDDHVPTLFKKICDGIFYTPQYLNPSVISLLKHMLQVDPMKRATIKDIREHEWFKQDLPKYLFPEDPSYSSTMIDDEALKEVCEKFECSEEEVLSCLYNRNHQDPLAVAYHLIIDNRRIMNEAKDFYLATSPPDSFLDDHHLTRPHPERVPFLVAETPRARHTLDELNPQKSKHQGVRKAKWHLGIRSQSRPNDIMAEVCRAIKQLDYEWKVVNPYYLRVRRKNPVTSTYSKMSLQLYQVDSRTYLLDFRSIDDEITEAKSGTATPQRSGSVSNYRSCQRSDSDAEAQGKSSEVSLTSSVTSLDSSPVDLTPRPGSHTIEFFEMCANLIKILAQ
Method: as §1, §2, §3, §4

[14] = target: T14, MARK2 (Homo sapiens, UniProt Q7KZI7); conditions: MARK2, 1 µM; read-out: Residual Activity (%)
T14 construct: purchased ProQinase
Method: as §1, §2, §3, §4

[15] = target: T15, ROS (Homo sapiens, UniProt P08922); conditions: read-out: Residual Activity (%)
T15 construct: purchased ProQinase
T15 sequence (P08922 28-2347): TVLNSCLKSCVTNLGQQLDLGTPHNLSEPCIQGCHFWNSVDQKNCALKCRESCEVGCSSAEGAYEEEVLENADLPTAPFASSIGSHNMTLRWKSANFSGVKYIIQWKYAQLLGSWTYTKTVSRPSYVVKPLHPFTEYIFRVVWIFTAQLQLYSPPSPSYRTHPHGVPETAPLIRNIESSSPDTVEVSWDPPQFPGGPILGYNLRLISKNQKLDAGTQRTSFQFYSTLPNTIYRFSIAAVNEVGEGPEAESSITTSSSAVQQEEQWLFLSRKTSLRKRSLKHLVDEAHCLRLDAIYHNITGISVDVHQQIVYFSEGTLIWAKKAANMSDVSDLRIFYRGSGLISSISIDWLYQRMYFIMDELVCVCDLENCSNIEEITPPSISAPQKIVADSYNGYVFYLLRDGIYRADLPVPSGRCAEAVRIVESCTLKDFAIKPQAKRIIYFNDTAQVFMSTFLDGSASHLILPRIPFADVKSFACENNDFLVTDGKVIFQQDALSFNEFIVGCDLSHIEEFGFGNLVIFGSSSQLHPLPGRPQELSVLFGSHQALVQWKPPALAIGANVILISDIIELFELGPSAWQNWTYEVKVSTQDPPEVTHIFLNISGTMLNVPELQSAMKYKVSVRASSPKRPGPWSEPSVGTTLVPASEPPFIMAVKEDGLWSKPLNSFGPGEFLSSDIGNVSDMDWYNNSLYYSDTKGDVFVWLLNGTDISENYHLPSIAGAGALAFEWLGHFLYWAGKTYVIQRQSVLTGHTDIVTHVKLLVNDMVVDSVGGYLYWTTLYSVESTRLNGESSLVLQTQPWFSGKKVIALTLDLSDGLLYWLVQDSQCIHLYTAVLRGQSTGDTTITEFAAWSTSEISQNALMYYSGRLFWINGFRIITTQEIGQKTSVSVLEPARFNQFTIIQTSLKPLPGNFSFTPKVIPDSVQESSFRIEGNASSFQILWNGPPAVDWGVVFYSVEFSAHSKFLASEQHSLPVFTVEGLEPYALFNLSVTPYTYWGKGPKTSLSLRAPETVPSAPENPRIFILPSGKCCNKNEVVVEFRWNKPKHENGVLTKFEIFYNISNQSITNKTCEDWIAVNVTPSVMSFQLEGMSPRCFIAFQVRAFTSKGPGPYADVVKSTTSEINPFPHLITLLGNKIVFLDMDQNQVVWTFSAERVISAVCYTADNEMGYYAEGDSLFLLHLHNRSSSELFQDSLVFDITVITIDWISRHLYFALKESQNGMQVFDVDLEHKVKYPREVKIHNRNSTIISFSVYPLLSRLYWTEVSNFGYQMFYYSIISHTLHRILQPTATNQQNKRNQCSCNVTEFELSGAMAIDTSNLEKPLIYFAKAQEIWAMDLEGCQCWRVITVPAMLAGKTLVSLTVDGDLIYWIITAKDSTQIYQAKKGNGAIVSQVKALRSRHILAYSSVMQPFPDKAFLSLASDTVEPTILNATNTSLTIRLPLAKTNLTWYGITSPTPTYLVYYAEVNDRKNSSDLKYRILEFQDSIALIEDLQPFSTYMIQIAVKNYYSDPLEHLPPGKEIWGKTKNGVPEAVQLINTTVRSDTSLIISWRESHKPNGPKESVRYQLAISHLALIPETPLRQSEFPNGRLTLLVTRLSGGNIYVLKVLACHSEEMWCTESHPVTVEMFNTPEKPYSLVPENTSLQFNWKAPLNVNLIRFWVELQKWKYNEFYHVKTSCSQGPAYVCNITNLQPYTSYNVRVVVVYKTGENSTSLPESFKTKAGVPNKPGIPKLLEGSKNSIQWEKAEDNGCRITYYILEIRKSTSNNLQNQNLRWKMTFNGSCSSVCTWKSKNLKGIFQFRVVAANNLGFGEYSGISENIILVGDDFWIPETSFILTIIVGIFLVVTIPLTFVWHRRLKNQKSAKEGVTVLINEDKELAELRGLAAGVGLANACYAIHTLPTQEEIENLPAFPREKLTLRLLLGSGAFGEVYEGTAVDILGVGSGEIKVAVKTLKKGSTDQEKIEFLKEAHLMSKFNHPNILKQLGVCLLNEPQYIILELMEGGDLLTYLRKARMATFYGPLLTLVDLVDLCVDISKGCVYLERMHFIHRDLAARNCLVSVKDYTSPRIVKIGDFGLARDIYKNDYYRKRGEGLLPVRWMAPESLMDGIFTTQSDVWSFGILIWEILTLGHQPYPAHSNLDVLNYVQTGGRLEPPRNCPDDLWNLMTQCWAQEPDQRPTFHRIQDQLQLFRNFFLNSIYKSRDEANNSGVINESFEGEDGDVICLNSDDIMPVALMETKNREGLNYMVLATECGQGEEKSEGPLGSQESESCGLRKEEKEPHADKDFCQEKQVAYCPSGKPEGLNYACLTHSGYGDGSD
Method: as §1, §2, §3, §4

[16] = target: T16, SLK (Homo sapiens, UniProt Q9H2G2); conditions: read-out: Residual Activity (%)
T16 construct: purchased ProQinase
Method: as §1, §2, §3, §4

[17] = target: T17, AKT2 aa107-481 (Homo sapiens, UniProt P31751); conditions: AKT2 aa107-481, 1 µM; read-out: Residual Activity (%)
T17 construct: purchased ProQinase
Method: as §1, §2, §3, §4

[18] = target: T18, DYRK3 (Homo sapiens, UniProt O43781); conditions: DYRK3, 1 µM; read-out: Residual Activity (%)
T18 construct: purchased ProQinase
Method: as §1, §2, §3, §4

[19] = target: T19, TYRO3 (Homo sapiens, UniProt Q06418); conditions: TYRO3, 1 µM; read-out: Residual Activity (%)
T19 construct: purchased ProQinase
Method: as §1, §2, §3, §4

[20] = target: T20, CK1-delta (Homo sapiens, UniProt P48730); conditions: read-out: Residual Activity (%)
T20 construct: purchased ProQinase
Method: as §1, §2, §3, §4

[21] = target: T21, ACK1 (Homo sapiens, UniProt Q07912); conditions: ACK1, 1 µM; read-out: Residual Activity (%)
T21 construct: purchased ProQinase
Method: as §1, §2, §3, §4

[22] = target: T22, HIPK1 (Homo sapiens, UniProt Q86Z02); conditions: HIPK1, 1 µM; read-out: Residual Activity (%)
T22 construct: purchased ProQinase
Method: as §1, §2, §3, §4

[23] = target: T23, GRK6 (Homo sapiens, UniProt P43250); conditions: GRK6, 1 µM; read-out: Residual Activity (%)
T23 construct: purchased ProQinase
Method: as §1, §2, §3, §4

[24] = target: T24, CAMKK2 (Homo sapiens, UniProt Q96RR4); conditions: CAMKK2, 1 µM; read-out: Residual Activity (%)
T24 construct: purchased ProQinase
Method: as §1, §2, §3, §4

[25] = target: T25, EPHA2 (Homo sapiens, UniProt P29317); conditions: EPHA2, 1 µM; read-out: Residual Activity (%)
T25 construct: purchased ProQinase
Method: as §1, §2, §3, §4

[26] = target: T26, MKK6 S207D/T211D** (Homo sapiens, UniProt P52564, S207D/T211D); conditions: read-out: Residual Activity (%)
T26 construct: purchased ProQinase
Method: as §1, §2, §3, §4

[27] = target: T27, NEK7 (Homo sapiens, UniProt Q8TDX7); conditions: NEK7, 1 µM; read-out: Residual Activity (%)
T27 construct: purchased ProQinase
T27 sequence (Q8TDX7 whole entry): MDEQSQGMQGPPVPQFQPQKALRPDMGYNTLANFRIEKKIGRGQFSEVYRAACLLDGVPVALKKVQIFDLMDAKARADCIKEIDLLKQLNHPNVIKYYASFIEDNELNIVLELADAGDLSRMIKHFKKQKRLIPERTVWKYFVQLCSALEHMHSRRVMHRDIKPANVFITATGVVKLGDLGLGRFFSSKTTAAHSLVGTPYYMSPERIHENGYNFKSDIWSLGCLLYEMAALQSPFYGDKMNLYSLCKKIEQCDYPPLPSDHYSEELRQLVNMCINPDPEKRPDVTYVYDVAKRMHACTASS
Method: as §1, §2, §3, §4

[28] = target: T28, SRPK1 (Homo sapiens, UniProt Q96SB4); conditions: SRPK1, 1 µM; read-out: Residual Activity (%)
T28 construct: purchased ProQinase
T28 sequence (Q96SB4 whole entry): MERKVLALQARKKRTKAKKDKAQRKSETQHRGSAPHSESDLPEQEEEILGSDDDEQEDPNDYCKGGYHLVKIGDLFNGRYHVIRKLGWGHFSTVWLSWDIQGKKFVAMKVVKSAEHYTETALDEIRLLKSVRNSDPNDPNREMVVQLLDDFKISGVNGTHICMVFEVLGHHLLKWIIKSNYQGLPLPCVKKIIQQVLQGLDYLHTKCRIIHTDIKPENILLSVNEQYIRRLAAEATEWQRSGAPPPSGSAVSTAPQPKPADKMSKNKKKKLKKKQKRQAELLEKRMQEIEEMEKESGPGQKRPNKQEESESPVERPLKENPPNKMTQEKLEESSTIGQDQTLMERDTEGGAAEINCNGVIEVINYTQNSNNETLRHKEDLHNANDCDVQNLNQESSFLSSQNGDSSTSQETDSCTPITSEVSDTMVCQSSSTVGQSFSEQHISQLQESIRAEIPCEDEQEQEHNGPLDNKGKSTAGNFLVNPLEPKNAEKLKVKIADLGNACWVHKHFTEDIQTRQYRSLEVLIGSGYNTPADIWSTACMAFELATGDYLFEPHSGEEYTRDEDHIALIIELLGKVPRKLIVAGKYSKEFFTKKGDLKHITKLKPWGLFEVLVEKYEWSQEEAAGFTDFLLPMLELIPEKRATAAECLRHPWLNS
Method: as §1, §2, §3, §4

[29] = target: T29, CSK (Homo sapiens, UniProt P41240); conditions: read-out: Residual Activity (%)
T29 construct: purchased ProQinase
Method: as §1, §2, §3, §4

COc1ccc(-c2cc(C(=O)Nc3cc(-c4c(-c5ccc(F)cc5)noc4C(C)C)ccn3)n(CC3NCC(O)C3O)c2)cc1 (centres unmarked) [29d]
remaining activity at 1 µM [1]: 107% | remaining activity at 1 µM [2]: 98% | remaining activity at 1 µM [3]: 101% | remaining activity at 1 µM [4]: 99% | remaining activity at 1 µM [5]: 118% | remaining activity at 1 µM [6]: 123% | remaining activity at 1 µM [7]: 102% | remaining activity at 1 µM [8]: 109% | remaining activity at 1 µM [9]: 63% | remaining activity at 1 µM [10]: 84% | remaining activity at 1 µM [11]: 120% | remaining activity at 1 µM [12]: 113% | remaining activity at 1 µM [13]: 99% | remaining activity at 1 µM [14]: 97% | remaining activity at 1 µM [15]: 88% | remaining activity at 1 µM [16]: 114% | remaining activity at 1 µM [17]: 107% | remaining activity at 1 µM [18]: 106% | remaining activity at 1 µM [19]: 115% | remaining activity at 1 µM [20]: 1% | remaining activity at 1 µM [21]: 96% | remaining activity at 1 µM [22]: 98% | remaining activity at 1 µM [23]: 101% | remaining activity at 1 µM [24]: 97% | remaining activity at 1 µM [25]: 103% | remaining activity at 1 µM [26]: 91% | remaining activity at 1 µM [27]: 116% | remaining activity at 1 µM [28]: 105% | remaining activity at 1 µM [29]: 115%
